Laboratory results published in US11229623B2 (GlaxoSmithKline Intellectual Property (No.2) Limited, priority 2016, dated 2022).

These molecules were tested against T1, human TRPV4 (Homo sapiens, UniProt Q9HBA0) (assay: FLIPR assay for hTRPV4 expressed in BHK cells: inhibition of Agonist Compound-induced calcium signal). Settings: not given.
T1 construct: expressed in transfected cells; host or cells: BHK/AC9 cells transduced with BacMam virus
Assay type: cell-based
Summary of the method: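 Calcium influx through TRPV4 tracked by Fluo-4 fluorescence on FLIPR. Cells: BHK/AC9 transduced with BacMam-hTRPV4 at MOI 78, 24 h culture post-plating (15,000 cells/well). Dye loading: 2 μM Fluo-4 AM with 500 μM Brilliant Black quencher, 1-1.5 h, room temperature, dark.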

T1 sequence (Q9HBA0 whole entry): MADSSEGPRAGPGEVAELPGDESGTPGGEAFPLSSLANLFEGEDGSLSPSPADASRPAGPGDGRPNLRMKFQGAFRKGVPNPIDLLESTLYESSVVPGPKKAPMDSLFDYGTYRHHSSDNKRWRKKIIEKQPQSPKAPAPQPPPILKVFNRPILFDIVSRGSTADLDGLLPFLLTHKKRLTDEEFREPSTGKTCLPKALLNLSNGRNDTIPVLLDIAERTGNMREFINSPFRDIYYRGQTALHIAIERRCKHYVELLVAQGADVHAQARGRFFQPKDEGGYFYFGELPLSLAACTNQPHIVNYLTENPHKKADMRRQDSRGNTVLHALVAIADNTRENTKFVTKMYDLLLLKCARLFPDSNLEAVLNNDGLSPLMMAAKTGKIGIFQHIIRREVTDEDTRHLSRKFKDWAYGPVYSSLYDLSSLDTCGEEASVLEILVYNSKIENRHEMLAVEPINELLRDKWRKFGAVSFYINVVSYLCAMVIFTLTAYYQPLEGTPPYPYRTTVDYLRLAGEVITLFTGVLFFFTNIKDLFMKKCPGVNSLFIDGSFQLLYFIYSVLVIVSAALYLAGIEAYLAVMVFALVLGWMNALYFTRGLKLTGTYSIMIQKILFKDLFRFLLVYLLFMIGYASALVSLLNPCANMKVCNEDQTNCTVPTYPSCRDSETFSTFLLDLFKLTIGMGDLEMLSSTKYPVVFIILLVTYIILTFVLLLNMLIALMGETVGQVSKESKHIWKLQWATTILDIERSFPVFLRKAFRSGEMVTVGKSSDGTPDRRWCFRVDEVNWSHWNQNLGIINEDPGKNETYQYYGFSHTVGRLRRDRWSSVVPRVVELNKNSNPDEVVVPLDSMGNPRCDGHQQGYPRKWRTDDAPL

Structure (SMILES) | IC50 [nM]
C[C@H](O)[C@]1(O)CN(S(=O)(=O)c2ccc(Cl)cn2)C[C@@H]1Oc1ccc(C#N)c(F)c1 [Example 191] | 100 to 1000

Same assay, conditions: hTRPV4 in BHK/AC9 cells, FLIPR calcium signal, agonist at EC80; reported as range class; read-out: IC50

Structure (SMILES) | IC50 [nM]
N#Cc1ccc(O[C@H]2CN(S(=O)(=O)c3ccc(OC(F)(F)F)cn3)C[C@@]2(O)CO)cc1F [Example 127, 2-fluoro-4-(((3S,4R)-4-hydroxy-4-(hydroxymethyl)-1-((5-(trifluoromethoxy)pyridin-2-yl)sulfonyl)pyrrolidin-3-yl)oxy)benzonitrile] | 100 to 1000
N#Cc1ccc(O[C@H]2CN(S(=O)(=O)c3ccc(Br)cn3)C[C@@]2(O)CO)cc1F [Example 105, 4-(((3S,4R)-1-((5-bromopyridin-2-yl)sulfonyl)-4-hydroxy-4-(hydroxymethyl)pyrrolidin-3-yl)oxy)-2-fluorobenzonitrile] | 10 to 100
N#Cc1ccc(O[C@H]2CN(S(=O)(=O)c3ccc(OC(F)F)nc3)C[C@@]2(O)CO)cc1F [Example 126, 4-(((3S,4R)-1-((6-(difluoromethoxy)pyridin-3-yl)sulfonyl)-4-hydroxy-4-(hydroxymethyl)pyrrolidin-3-yl)oxy)-2-fluorobenzonitrile] | 100 to 1000
Cc1nn(C)c(S(=O)(=O)N2C[C@H](Oc3ccc(C#N)c(F)c3)[C@](O)(CO)C2)c1Cl [Example 124, 4-(((3S,4R)-1-((4-chloro-1,3-dimethyl-1H-pyrazol-5-yl)sulfonyl)-4-hydroxy-4-(hydroxymethyl)pyrrolidin-3-yl)oxy)-2-fluorobenzonitrile] | 100 to 1000
Cc1nc(C(F)(F)F)ccc1S(=O)(=O)N1C[C@H](Oc2ccc(C#N)c(F)c2)[C@](O)(CO)C1 [Example 83, 2-fluoro-4-(((3S,4R)-4-hydroxy-4-(hydroxymethyl)-1-((2-methyl-6-(trifluoromethyl)pyridin-3-yl)sulfonyl)pyrrolidin-3-yl)oxy)benzonitrile] | 10 to 100
N#Cc1ccc(O[C@H]2CN(S(=O)(=O)c3ccc(OC(F)(F)F)cc3Cl)C[C@@]2(O)CO)cc1F [Example 66, 4-(((3S,4R)-1-((2-chloro-4-(trifluoromethoxy)phenyl)sulfonyl)-4-hydroxy-4-(hydroxymethyl)pyrrolidin-3-yl)oxy)-2-fluorobenzonitrile] | 10 to 100
N#Cc1ccc(O[C@H]2CN(S(=O)(=O)c3ccc(C(F)(F)F)cc3C#N)C[C@@]2(O)CO)cc1C(F)(F)F [Example 11, 4-(((3S,4R)-1-((2-cyano-4-(trifluoromethyl)phenyl)sulfonyl)-4-hydroxy-4-(hydroxymethyl)pyrrolidin-3-yl)oxy)-2-(trifluoromethyl)benzonitrile] | 10 to 100
C[C@@H](O)[C@]1(O)CN(S(=O)(=O)c2ccc(F)cn2)C[C@@H]1Oc1ccc(C#N)c(F)c1 [Example 207, 2-fluoro-4-(((3S,4R)-1-((5-fluoropyridin-2-yl)sulfonyl)-4-hydroxy-4-((R)-1-hydroxyethyl)pyrrolidin-3-yl)oxy)benzonitrile] | 10 to 100
C[C@@H](O)[C@]1(O)CN(S(=O)(=O)c2ccc(OC(F)(F)F)cn2)C[C@@H]1Oc1ccc(C#N)c(F)c1 [Example 210, 2-fluoro-4-(((3S,4R)-4-hydroxy-4-((R)-1-hydroxyethyl)-1-((5-(trifluoromethoxy)pyridin-2-yl)sulfonyl)pyrrolidin-3-yl)oxy)benzonitrile] | 10 to 100
Cc1ccc(S(=O)(=O)N2C[C@H](Oc3cc(F)c(C#N)cc3OCC(C)C)[C@](O)(CO)C2)nn1 [Example 188, 2-fluoro-4-(((3S,4R)-4-hydroxy-4-(hydroxymethyl)-1-((6-methylpyridazin-3-yl)sulfonyl)pyrrolidin-3-yl)oxy)-5-isobutoxybenzonitrile] | 10 to 100
N#CCc1cccc(O[C@H]2CN(S(=O)(=O)c3ccc(C(F)(F)F)cc3C#N)C[C@@]2(O)CO)c1 [Example 33, 2-(((3R,4S)-4-(3-(cyanomethyl)phenoxy)-3-hydroxy-3-(hydroxymethyl)pyrrolidin-1-yl)sulfonyl)-5-(trifluoromethyl)benzonitrile] | 10 to 100
CCCOc1cc(C#N)ccc1O[C@H]1CN(S(=O)(=O)c2ccc(C(F)(F)F)cc2C#N)C[C@@]1(O)CO [Example 166, 2-(((3R,4S)-4-(4-cyano-2-propoxyphenoxy)-3-hydroxy-3-(hydroxymethyl)pyrrolidin-1-yl)sulfonyl)-5-(trifluoromethyl)benzonitrile] | 0.1 to 10
N#Cc1ccc(O[C@H]2CN(S(=O)(=O)c3ccc(C(F)(F)F)cc3C#N)C[C@@]2(O)CO)c(O)c1 [Example 168, 2-(((3R,4S)-4-(4-cyano-2-hydroxyphenoxy)-3-hydroxy-3-(hydroxymethyl)pyrrolidin-1-yl)sulfonyl)-5-(trifluoromethyl)benzonitrile] | 10 to 100
COc1ccc(O[C@H]2CN(S(=O)(=O)c3ccc(C(F)(F)F)cc3C#N)C[C@@]2(O)CO)cc1 [Example 52, 2-(((3R,4S)-3-hydroxy-3-(hydroxymethyl)-4-(4-methoxyphenoxy)pyrrolidin-1-yl)sulfonyl)-5-(trifluoromethyl)benzonitrile] | 10 to 100
COc1cc(C#N)ccc1O[C@H]1CN(S(=O)(=O)c2ccc(C(F)(F)F)cc2C#N)C[C@@]1(O)CO [Example 10, 2-(((3R,4S)-4-(4-cyano-2-methoxyphenoxy)-3-hydroxy-3-(hydroxymethyl)pyrrolidin-1-yl)sulfonyl)-5-(trifluoromethyl)benzonitrile] | 10 to 100
N#Cc1ccc(O[C@H]2CN(S(=O)(=O)c3ccc(Br)cn3)C[C@@]2(O)CN)cc1F [Example 251, 4-(((3S,4S)-4-(aminomethyl)-1-((5-bromopyridin-2-yl)sulfonyl)-4-hydroxpyrrolidin-3-yl)oxy)-2-fluorobenzonitrile, 2,2,2-trifluoroacetate] | 0.1 to 10
N#Cc1cc(Cl)ccc1S(=O)(=O)N1C[C@H](Oc2ccc(F)c(F)c2)[C@](O)(CO)C1 [Example 8, 5-chloro-2-(((3R,4S)-4-(3,4-difluorophenoxy)-3-hydroxy-3-(hydroxymethyl)pyrrolidin-1-yl)sulfonyl)benzonitrite] | 0.1 to 10

Further lines, results first:

IC50 [nM] | Structure (SMILES)
0.1 to 10 | CCOc1cc(C#N)c(F)cc1O[C@H]1CN(S(=O)(=O)c2ccc(C(F)(F)F)cc2C#N)C[C@@]1(O)CO [Example 159, 4-(((3S,4R)-1-((2-cyano-4-(trifluoromethyl)phenyl)sulfonyl)-4-hydroxy-4-(hydroxymethyl)pyrrolidin-3-yl)oxy)-5-ethoxy-2-fluorobenzonitrile]
0.1 to 10 | CNC[C@]1(O)CN(S(=O)(=O)c2ccc(C(F)(F)F)cc2C#N)C[C@@H]1Oc1ccc(C#N)c(F)c1 [Example 237, 4-(((3S,4S)-1-((2-cyano-4-(trifluoromethyl)phenyl)sulfonyl)-4-hydroxy-4-((methylamino)methyl)pyrrolidin-3-yl)oxy)-2-fluorobenzonitrile, 2,2,2-trifluoroacetate]
0.1 to 10 | N#Cc1cc(Cl)ccc1S(=O)(=O)N1C[C@H](Oc2ccc(C(F)(F)F)cc2)[C@](O)(CO)C1 [Example 156, 5-chloro-2-(((3R,4S)-3-hydroxy-3-(hydroxymethyl)-4-(4-(trifluoromethyl)phenoxy)pyrrolidin-1-yl)sulfonyl)benzonitrile]
0.1 to 10 | N#Cc1ccc(O[C@H]2CN(S(=O)(=O)c3ccccc3C#N)C[C@@]2(O)CO)cc1F [Example 61, 4-(((3S,4R)-1-((2-cyanophenyl)sulfonyl)-4-hydroxy-4-(hydroxymethyl)pyrrolidin-3-yl)oxy)-2-fluorobenzonitrile]
0.1 to 10 | N#Cc1cc(OCC(F)(F)F)c(O[C@H]2CN(S(=O)(=O)c3ccc(Cl)cc3Cl)C[C@@]2(O)CO)cc1F [Example 177, 4-(((3S,4R)-1-((2,4-dichlorophenyl)sulfonyl)-4-hydroxy-4-(hydroxymethyl)pyrrolidin-3-yl)oxy)-2-fluoro-5-(2,2,2-trifluoroethoxy) benzonitrile]
0.1 to 10 | C[C@H](O)[C@]1(O)CN(S(=O)(=O)c2ccc(C#N)cc2Cl)C[C@@H]1Oc1ccc(C#N)c(F)c1 [Example 205, 4-(((3S,4R)-1-((2-chloro-4-cyanophenyl)sulfonyl)-4-hydroxy-4-((S)-1-hydroxyethyl)pyrrolidin-3-yl)oxy)-2-fluorobenzonitrile]
0.1 to 10 | N#Cc1cc(Cl)ccc1S(=O)(=O)N1C[C@H](Oc2ccc(Cl)cc2)[C@](O)(CO)C1 [Example 154, 5-chloro-2-(((3R,4S)-4-(4-chlorophenoxy)-3-hydroxy-3-(hydroxymethyl)pyrrolidin-1-yl)sulfonyl)benzonitrile]
0.1 to 10 | N#Cc1ccc(S(=O)(=O)N2C[C@H](Oc3ccc(Cl)cc3)[C@](O)(CO)C2)c(Br)c1 [Example 108, 3-bromo-4-(((3R,4S)-4-(4-chlorophenoxy)-3-hydroxy-3-(hydroxymethyl)pyrrolidin-1-yl)sulfonyl)benzonitrile]
0.1 to 10 | N#Cc1ccc(S(=O)(=O)N2C[C@H](Oc3ccc(C#N)c(F)c3)[C@](O)(CO)C2)c(F)c1 [Example 113, 4-(((3S,4R)-1-((4-cyano-2-fluorophenyl)sulfonyl)-4-hydroxy-4-(hydroxymethyl)pyrrolidin-3-yl)oxy)-2-fluorobenzonitrile]
